Earlier results in patent US20070092586A1, “Compositions and methods for the administration psychotropic drugs which modulate body weight” (Alamo Pharmaceuticals, priority 2005, published 2007).

Key:
[1] = lithium maintenance therapy; J. Clin. Psychopharmacol. 1988

Structure (SMILES): CN1CCN(C2=Nc3cc(Cl)ccc3Nc3ccccc32)CC1 [clozapine, 8-chloro-11-(4-methyl-1-piperazinyl)-5H-dibenzo[b,e] [1,4] diazepine]
- increase in body weight (mean) (59 patients taking clozapine for an unstated period, P<0.05, Gerlach et al. 1989): 2.8 kg
- mean increase in body weight (over 21 months, patients who responded to clozapine and remained clinically stable, Jalenques et al. 1996): 12.4 kg

Structure (SMILES): O=C([O-])[O-].[Li+].[Li+] [lithium]
- patients with weight gains of over 10 kg [1]: 20%
